This note sets out measurements from patent publication US8658646B2, “Pyrrolopyrazine kinase inhibitors” (Hoffmann-LaRoche Inc., priority 2011, dated 2014).

The target in the assay is T1, recombinant human SYK360-635 (Homo sapiens, UniProt P43405).
T1 construct: made in house
Kind of assay: Determination of IC50 of Spleen Tyrosine Kinase (SYK) inhibition, 33P ATP filtration assay. The class given is biochemical. The conditions noted are these: SYK aa 360-635 0.5 nM; ATP 20 μM, peptide 5 μM, 0.1% BSA; read-out: SYK_ENZYME_FILTRATION/v1, BSA.

As for `NC1CCC(NC(=O)c2c[nH]c3ncc(-c4nn(C5CCNCC5)c5cc(F)ccc45)nc23)C1` (stereo not drawn) [Example I-267, 2-(6-Fluoro-1-piperidin-4-yl-1H-indazol-3-yl)-5H-pyrrolo[2,3-b]pyrazine-7-carboxylic acid (3-amino-cyclopentyl)-amide], the IC50 was determined as 0.0303 µM.
On to `Cc1ccc2c(-c3cnc4[nH]cc(C(=O)NC(C)(C)CO)c4n3)nn(CCCN3CCOCC3)c2c1` [Example I-438, 2-[6-Methyl-1-(3-morpholin-4-yl-propyl)-1H-indazol-3-yl]-5H-pyrrolo[2,3-b]pyrazine-7-carboxylic acid (2-hydroxy-1,1-dimethyl-ethyl)-amide], for which the IC50 was 0.0274 µM.
On to `C[C@@H](NC(=O)c1c[nH]c2ncc(-c3nn(C)c4cc(C#N)ccc34)nc12)C(=O)N1CC(C#N)C1` [Example I-22, 2-(6-Cyano-1-methyl-1H-indazol-3-yl)-5H-pyrrolo[2,3-b]pyrazine-7-carboxylic acid [(R)-2-(3-cyano-azetidin-1-yl)-1-methyl-2-oxo-ethyl]-amide], for which the IC50 is 0.0457 µM.
`Cn1nc(-c2cnc3[nH]cc(C(=O)NC4(C)CCC4)c3n2)c2ccc(F)cc21` [Example I-376, 2-(6-Fluoro-1-methyl-1H-indazol-3-yl)-5H-pyrrolo[2,3-b]pyrazine-7-carboxylic acid (1-methyl-cyclobutyl)-amide]: the IC50 stood at 0.00282 µM.
Next, `Cc1nn(-c2cnc3[nH]cc(C(=O)NC(C)(C)CO)c3n2)c2ccc(Cl)cc12` [Example I-319, 2-(5-Chloro-3-methyl-indazol-1-yl)-5H-pyrrolo[2,3-b]pyrazine-7 carboxylic acid (2-hydroxy-1,1-dimethyl-ethyl)-amide]: 0.0346 µM.
With `Cc1ccc2c(-c3cnc4[nH]cc(C(=O)NC(C)(C)CO)c4n3)nn(C)c2c1` [Example I-368, 2-(1,6-Dimethyl-1H-indazol-3-yl)-5H-pyrrolo[2,3-b]pyrazine-7-carboxylic acid (2-hydroxy-1,1-dimethyl-ethyl)-amide], the IC50 was 0.00895 µM.
Then `CC(C)NC(=O)c1c[nH]c2ncc(-c3c4c(n(C)[n+]3[O-])CCCC4)nc12` [Example I-293, 2-(1-Methyl-2-oxy-4,5,6,7-tetrahydro-1H-indazol-3-yl)-5H-pyrrolo[2,3-b]pyrazine-7-carboxylic acid isopropylamide], with 2.71 µM.
As to `Cn1nc(-c2cnc3[nH]cc(C(=O)NC4(C)CCCCC4)c3n2)c2ccc(F)cc21` [Example I-392, 2-(6-Fluoro-1-methyl-1H-indazol-3-yl)-5H-pyrrolo[2,3-b]pyrazine-7-carboxylic acid (1-methyl-cyclohexyl)-amide], the IC50 was found to be 0.0102 µM.
As for `Cn1nc(-c2cnc3[nH]cc(C(=O)N[C@H]4CC[C@@H](N)CC4)c3n2)c2cc(OC(F)F)ccc21` [Example I-402, 2-(5-Difluoromethoxy-1-methyl-1H-indazol-3-yl)-5H-pyrrolo[2,3-b]pyrazine-7-carboxylic acid (cis-4-amino-cyclohexyl)-amide], the IC50 is 0.101 µM.
As for `C#CC1CN(C(=O)c2c[nH]c3ncc(-c4nn(C)c5cc(F)ccc45)nc23)C1` [Example I-360, (3-Ethynyl-azetidin-1-yl)-[2-(6-fluoro-1-methyl-1H-indazol-3-yl)-5H-pyrrolo[2,3-b]pyrazin-7-yl]-methanone], the IC50 was determined as 1.55 µM.
Take `COc1ccc2c(c1)c(-c1cnc3[nH]cc(C(=O)NC(C)(C)C)c3n1)nn2C` [Example I-287, 2-(5-Methoxy-1-methyl-1H-indazol-3-yl)-5H-pyrrolo[2,3-b]pyrazine-7-carboxylic acid tert-butylamide]: the IC50 is 0.00322 µM.
For the compound `Cn1nc(-c2cnc3[nH]cc(C(=O)NC4(C)CNC4)c3n2)c2ccc(F)cc21` [Example I-409, 2-(6-Fluoro-1-methyl-1H-indazol-3-yl)-5H-pyrrolo[2,3-b]pyrazine-7-carboxylic acid (3-methyl-azetidin-3-yl)-amide], the IC50 came to 0.317 µM.
